Data taken from patent publication US20250243488A1, “METHODS OF MODULATING PROGRANULIN EXPRESSION USING ANTISENSE OLIGONUCLEOTIDES TARGETING REGULATORY RNAS” (Camp4 Therapeutics Corporation, priority 2022, published 2025).
Oligonucleotides are written 5' to 3', each unit as a sugar letter and its base; * is a phosphorothioate linkage, no mark a phosphodiester; rarer units and linkages stand in square brackets, end groups in braces. Plain capitals give the bases only. e = 2'-O-(2-methoxyethyl) (MOE); l = locked nucleic acid (LNA); [5mC] = 5-methylcytosine

System: mGrn mRNA
Experiment: mGrn mRNA qPCR in Neuro2a cells transfected with ASOs
Assay type: cell-based, mouse
Conditions: for 40 nM FC (mGrn mRNA) / 80 nM FC (mGrn mRNA) / 160 nM FC (mGrn mRNA): transfection; for mGRN mRNA FC: Table 14, 100 nM, 48 hours, normalized to sNTC3
Experimental: 57 ASOs targeting the Grn promoter (− strand) were screened in Neuro2a cells. Neuro2a cells were transfected with 100 nM of each of the ASOs listed in Table 14 and cells were harvested 48 hours later for Grn mRNA quantification using qPCR. Housekeeping genes for normalization were Gapdh and Ppia. Relative Grn mRNA levels were normalized to mRNA extracted from cells treated with sNTC3 (steric nontargeting control).
Next, 26 ASOs based on parent ASOs CO-3544 and CO-3595 were designed with different modifications and base walking. Neuro2a cells were transfected with either […] or 160 nM of each of the ASOs listed in Table 15, and cells were harvested 48 hours later for mGrn mRNA quantification using qPCR. As controls, cells were treated with sNTC3 or no ASO. Housekeeping genes for normalization were Gapdh and Ppia. Relative Grn mRNA levels were normalized to mRNA extracted from cells treated with sNTC3.
CO-3544 was modified to include PO/PS bonds and the efficacy in upregulating mGrn mRNA was determined.
Similarly, CO-3595 was modified to include varying PO/PS internucleotide bonds and the efficacy of these ASOs in upregulating mGrn mRNA was determined in Neuro2A cells.

CO-5300: CO-3544 modified to include PO/PS bonds (antisense eG*eT*eTe[5mC]eTe[5mC]e[5mC]e[5mC]*eT*eA*eG*e[5mC]*eT*eG*eT*eG*eT*eA*eG*eT)
40 nM FC (mGrn mRNA) (Table 15, Neuro2a): 1.3 FC | 80 nM FC (mGrn mRNA) (Table 15, Neuro2a): 1.4 FC | 160 nM FC (mGrn mRNA) (Table 15, Neuro2a): 1.4 FC

CO-3585: ASO targeting the Grn promoter (− strand) (antisense eG*eT*e[5mC]*e[5mC]*e[5mC]*eA*e[5mC]*e[5mC]*eT*eT*eA*eT*e[5mC]*eA*eG*e[5mC]*e[5mC]*eT*e[5mC]*eT)
mGRN mRNA FC (Neuro2a): 1.7 FC

CO-3580: ASO targeting the Grn promoter (− strand) (antisense eG*e[5mC]*e[5mC]*eA*e[5mC]*eT*e[5mC]*eT*e[5mC]*e[5mC]*e[5mC]*e[5mC]*eA*eT*eT*e[5mC]*eA*eA*eA*e[5mC])
mGRN mRNA FC (Neuro2a): 1.2 FC

CO-3548: ASO targeting the Grn promoter (− strand) (antisense e[5mC]*eA*e[5mC]*eT*eT*eT*eT*e[5mC]*e[5mC]*e[5mC]*e[5mC]*e[5mC]*eG*e[5mC]*eT*eG*e[5mC]*e[5mC]*eT*e[5mC])
mGRN mRNA FC (Neuro2a): 1.5 FC

CO-3583: ASO targeting the Grn promoter (− strand) (antisense eT*e[5mC]*e[5mC]*e[5mC]*e[5mC]*e[5mC]*e[5mC]*eA*eG*eT*eT*eT*eG*eA*eG*e[5mC]*e[5mC]*eA*eA*eT)
mGRN mRNA FC (Neuro2a): 1.2 FC

CO-3599: ASO targeting the Grn promoter (− strand) (antisense eA*eT*eG*eA*eT*eG*e[5mC]*eA*e[5mC]*e[5mC]*eA*eG*eT*e[5mC]*eT*eT*eA*e[5mC]*eA*e[5mC])
mGRN mRNA FC (Neuro2a): 1.0 FC

CO-3560: ASO targeting the Grn promoter (− strand) (antisense eT*eG*eA*eT*eG*e[5mC]*eA*e[5mC]*eT*eA*eA*e[5mC]*eG*eA*eG*eG*eT*eT*eG*eT)
mGRN mRNA FC (Neuro2a): 1.2 FC

CO-3573: ASO targeting the Grn promoter (− strand) (antisense eG*eT*e[5mC]*eT*e[5mC]*eA*eT*e[5mC]*eT*e[5mC]*eT*eG*e[5mC]*eA*eA*e[5mC]*eA*e[5mC]*eT*e[5mC])
mGRN mRNA FC (Neuro2a): 1.4 FC

CO-3597: ASO targeting the Grn promoter (− strand) (antisense eA*e[5mC]*eA*eA*e[5mC]*e[5mC]*e[5mC]*eT*eG*e[5mC]*eA*eT*eG*e[5mC]*eA*e[5mC]*eT*e[5mC]*e[5mC]*eT)
mGRN mRNA FC (Neuro2a): 1.2 FC

CO-3557: ASO targeting the Grn promoter (− strand) (antisense eT*eG*eT*e[5mC]*eG*eG*eA*eA*eA*eG*e[5mC]*eT*eG*e[5mC]*eA*eG*eG*e[5mC]*e[5mC]*eT)
mGRN mRNA FC (Neuro2a): 1.6 FC

CO-3550: ASO targeting the Grn promoter (− strand) (antisense eG*eG*eT*eT*eG*eT*eG*eT*e[5mC]*eA*eG*e[5mC]*eT*eT*eT*eA*eT*eT*eT*e[5mC])
mGRN mRNA FC (Neuro2a): 0.9 FC

CO-5315: CO-3595 modified to include varying PO/PS internucleotide bonds (antisense l[5mC]*l[5mC]*eT*lG*eA*lA*e[5mC]*lT*eG*lT*eA*lT*eG*lG*e[5mC]*lT*lG*eA*l[5mC]*l[5mC])
40 nM FC (mGrn mRNA) (Table 16, Neuro2A): 1.3 FC | 80 nM FC (mGrn mRNA) (Table 16, Neuro2A): 1.4 FC | 160 nM FC (mGrn mRNA) (Table 16, Neuro2A): 1.6 FC

CO-3547: ASO targeting the Grn promoter (− strand) (antisense eA*eT*e[5mC]*eT*eG*eG*eA*eT*eT*eG*eG*e[5mC]*eT*e[5mC]*eA*e[5mC]*e[5mC]*eT*eT*eT)
mGRN mRNA FC (Neuro2a): 1.7 FC

CO-3570: ASO targeting the Grn promoter (− strand) (antisense e[5mC]*eT*eA*eA*eT*e[5mC]*eA*e[5mC]*eA*eT*eG*eA*eT*e[5mC]*e[5mC]*e[5mC]*eT*eA*eG*eA)
mGRN mRNA FC (Neuro2a): 1.2 FC

CO-5302: CO-3544 modified to include PO/PS bonds (antisense lG*lT*eT*l[5mC]*eT*l[5mC]*e[5mC]*l[5mC]*eT*lA*eG*l[5mC]*eT*lG*eT*lG*lT*eA*lG*lT)
40 nM FC (mGrn mRNA) (Table 15, Neuro2a): 1.3 FC | 80 nM FC (mGrn mRNA) (Table 15, Neuro2a): 1.2 FC | 160 nM FC (mGrn mRNA) (Table 15, Neuro2a): 1.0 FC

CO-3564: ASO targeting the Grn promoter (− strand) (antisense eA*e[5mC]*eG*e[5mC]*eA*eG*eG*eT*eA*eG*eG*eA*eG*eG*eA*e[5mC]*e[5mC]*e[5mC]*eT*e[5mC])
mGRN mRNA FC (Neuro2a): 1.1 FC

CO-5298: CO-3544 modified to include PO/PS bonds (antisense eG*eT*eTe[5mC]eTe[5mC]e[5mC]e[5mC]eTeAeGe[5mC]*eT*eG*eT*eG*eT*eA*eG*eT)
40 nM FC (mGrn mRNA) (Table 15, Neuro2a): 1.3 FC | 80 nM FC (mGrn mRNA) (Table 15, Neuro2a): 1.3 FC | 160 nM FC (mGrn mRNA) (Table 15, Neuro2a): 1.5 FC

CO-3552: ASO targeting the Grn promoter (− strand) (antisense e[5mC]*e[5mC]*eT*eT*eG*eG*e[5mC]*e[5mC]*e[5mC]*e[5mC]*e[5mC]*eA*eG*eA*eG*e[5mC]*eT*e[5mC]*eA*eA)
mGRN mRNA FC (Neuro2a): 1.1 FC

CO-3593: ASO targeting the Grn promoter (− strand) (antisense e[5mC]*eA*eT*eA*eA*e[5mC]*eA*eA*eT*eT*e[5mC]*e[5mC]*eT*e[5mC]*eG*eA*eA*eG*eG*eT)
mGRN mRNA FC (Neuro2a): 1.1 FC

CO-5311: CO-3595 modified to include varying PO/PS internucleotide bonds (antisense e[5mC]*e[5mC]*eTeGeAeAe[5mC]eTeGeTeAeT*eG*eG*e[5mC]*eT*eG*eA*e[5mC]*e[5mC])
40 nM FC (mGrn mRNA) (Table 16, Neuro2A): 1.5 FC | 80 nM FC (mGrn mRNA) (Table 16, Neuro2A): 1.7 FC | 160 nM FC (mGrn mRNA) (Table 16, Neuro2A): 1.7 FC

CO-3588: ASO targeting the Grn promoter (− strand) (antisense eG*eT*e[5mC]*eT*eG*eT*eA*eA*eA*eG*eA*eA*e[5mC]*eA*eA*eG*eA*eT*eA*eT)
mGRN mRNA FC (Neuro2a): 0.9 FC

CO-3594: ASO targeting the Grn promoter (− strand) (antisense e[5mC]*eA*eT*eG*eG*eT*e[5mC]*eT*e[5mC]*eT*eA*eT*eT*e[5mC]*eA*e[5mC]*e[5mC]*e[5mC]*eA*e[5mC])
mGRN mRNA FC (Neuro2a): 1.6 FC

CO-3563: ASO targeting the Grn promoter (− strand) (antisense eG*e[5mC]*eA*eG*eA*e[5mC]*eA*eA*eT*e[5mC]*eT*e[5mC]*e[5mC]*e[5mC]*e[5mC]*eG*eG*e[5mC]*eT*eA)
mGRN mRNA FC (Neuro2a): 1.5 FC

CO-3589: ASO targeting the Grn promoter (− strand) (antisense eT*eT*eT*e[5mC]*eA*eA*e[5mC]*e[5mC]*e[5mC]*eT*eT*eG*e[5mC]*eT*eA*eG*eA*eG*eG*e[5mC])
mGRN mRNA FC (Neuro2a): 1.3 FC

CO-3546: ASO targeting the Grn promoter (− strand) (antisense eG*eA*eA*eA*eT*eT*e[5mC]*eA*eT*eT*eT*e[5mC]*e[5mC]*e[5mC]*e[5mC]*eT*e[5mC]*eG*eA*e[5mC])
mGRN mRNA FC (Neuro2a): 1.4 FC

CO-5297: CO-3544 modified to include PO/PS bonds (antisense eG*eT*eTe[5mC]eTe[5mC]e[5mC]e[5mC]eTeAeGe[5mC]eTeG*eT*eG*eT*eA*eG*eT)
40 nM FC (mGrn mRNA) (Table 15, Neuro2a): 1.0 FC | 80 nM FC (mGrn mRNA) (Table 15, Neuro2a): 1.1 FC | 160 nM FC (mGrn mRNA) (Table 15, Neuro2a): 1.2 FC

CO-3592: ASO targeting the Grn promoter (− strand) (antisense eG*eA*eA*eA*e[5mC]*e[5mC]*e[5mC]*e[5mC]*eT*eT*e[5mC]*e[5mC]*eA*eT*e[5mC]*eT*e[5mC]*eG*eA*e[5mC])
mGRN mRNA FC (Neuro2a): 1.2 FC

CO-5306: CO-3595 modified to include varying PO/PS internucleotide bonds (antisense e[5mC]*e[5mC]*eT*eG*eA*eA*e[5mC]*eT*eGeTeAeTeGeGe[5mC]eTeG*eA*e[5mC]*e[5mC])
40 nM FC (mGrn mRNA) (Table 16, Neuro2A): 1.2 FC | 80 nM FC (mGrn mRNA) (Table 16, Neuro2A): 1.0 FC | 160 nM FC (mGrn mRNA) (Table 16, Neuro2A): 1.3 FC

CO-3600: ASO targeting the Grn promoter (− strand) (antisense eG*eG*eA*eA*e[5mC]*eA*e[5mC]*e[5mC]*eT*eA*eT*eG*e[5mC]*eT*eA*eA*e[5mC]*eA*e[5mC]*e[5mC])
mGRN mRNA FC (Neuro2a): 1.5 FC

CO-5301: CO-3544 modified to include PO/PS bonds (antisense lG*lT*eT*l[5mC]*lT*e[5mC]*l[5mC]*e[5mC]*lT*eA*lG*e[5mC]*lT*eG*lT*eG*lT*eA*lG*lT)
40 nM FC (mGrn mRNA) (Table 15, Neuro2a): 0.9 FC | 80 nM FC (mGrn mRNA) (Table 15, Neuro2a): 1.0 FC | 160 nM FC (mGrn mRNA) (Table 15, Neuro2a): 0.7 FC

CO-5313: CO-3595 modified to include varying PO/PS internucleotide bonds (antisense e[5mC]*e[5mC]*eTeGeAeAe[5mC]eT*eG*eT*eA*eT*eG*eG*e[5mC]*eT*eG*eA*e[5mC]*e[5mC])
40 nM FC (mGrn mRNA) (Table 16, Neuro2A): 1.3 FC | 80 nM FC (mGrn mRNA) (Table 16, Neuro2A): 1.4 FC | 160 nM FC (mGrn mRNA) (Table 16, Neuro2A): 1.5 FC

CO-5312: CO-3595 modified to include varying PO/PS internucleotide bonds (antisense e[5mC]*e[5mC]*eTeGeAeAe[5mC]eTeGeT*eA*eT*eG*eG*e[5mC]*eT*eG*eA*e[5mC]*e[5mC])
40 nM FC (mGrn mRNA) (Table 16, Neuro2A): 1.5 FC | 80 nM FC (mGrn mRNA) (Table 16, Neuro2A): 1.7 FC | 160 nM FC (mGrn mRNA) (Table 16, Neuro2A): 1.8 FC

CO-3555: ASO targeting the Grn promoter (− strand) (antisense e[5mC]*eT*e[5mC]*eT*eT*eG*eT*e[5mC]*e[5mC]*eG*eT*eA*e[5mC]*eT*eT*e[5mC]*e[5mC]*e[5mC]*eA*e[5mC])
mGRN mRNA FC (Neuro2a): 1.5 FC
